Measured values: patent US9334286B2, “Pharmacologically active compounds” (Cancer Research Technology Limited, priority 2012, dated 2016)

Target: full length MPS1 (Homo sapiens (Human), UniProt P33981)
Assay: Measurement of inhibition of MPS1 kinase (Caliper EZ reader, fluorescent labelled peptide H236)
Assay type: biochemical
Conditions: full length MPS1 12.5 nM or 3 nM, peptide H236 5 μM, ATP 10 μM, 60 min at room temperature

full length MPS1, sequence (P33981 whole entry): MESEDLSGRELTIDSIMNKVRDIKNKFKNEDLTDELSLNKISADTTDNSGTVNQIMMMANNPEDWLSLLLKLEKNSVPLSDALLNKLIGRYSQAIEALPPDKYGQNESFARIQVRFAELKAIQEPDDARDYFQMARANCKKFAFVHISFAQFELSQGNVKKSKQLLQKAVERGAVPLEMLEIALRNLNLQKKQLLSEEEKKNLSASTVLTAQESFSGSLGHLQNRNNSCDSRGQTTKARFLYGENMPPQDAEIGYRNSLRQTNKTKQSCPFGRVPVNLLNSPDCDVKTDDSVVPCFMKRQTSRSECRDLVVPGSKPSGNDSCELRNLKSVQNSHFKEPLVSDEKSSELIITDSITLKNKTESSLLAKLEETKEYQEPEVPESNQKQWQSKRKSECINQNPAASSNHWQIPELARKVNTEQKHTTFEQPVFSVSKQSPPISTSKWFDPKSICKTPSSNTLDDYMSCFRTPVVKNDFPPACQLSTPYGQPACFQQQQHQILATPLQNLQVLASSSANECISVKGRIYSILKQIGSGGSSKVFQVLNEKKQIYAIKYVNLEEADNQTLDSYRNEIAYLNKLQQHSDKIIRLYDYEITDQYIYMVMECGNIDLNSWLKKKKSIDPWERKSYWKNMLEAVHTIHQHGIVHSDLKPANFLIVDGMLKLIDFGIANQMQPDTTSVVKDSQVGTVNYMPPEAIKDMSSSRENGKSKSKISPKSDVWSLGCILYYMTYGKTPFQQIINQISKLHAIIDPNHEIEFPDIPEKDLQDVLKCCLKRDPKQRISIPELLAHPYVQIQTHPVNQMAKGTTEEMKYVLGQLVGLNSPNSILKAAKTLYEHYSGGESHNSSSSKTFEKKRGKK

SMILES | IC50 [nM]
COc1cc(-c2cnc(C)n2C)ccc1Nc1cc2cc(C3CC3)ccc2cn1 [Example 18, 6-Cyclopropyl-N-(4-(1,2-dimethyl-1H-imidazol-5-yl)-2-methoxyphenyl)isoquinolin-3-amine] | 144
COc1cc(-c2nncn2C)ccc1Nc1cc2nc(-c3cnn(CC(C)(C)O)c3)ccc2cn1 [Example 105, 1-(4-(7-(2-Methoxy-4-(4-methyl-4H-1,2,4-triazol-3-yl)phenylamino)-1,6-naphthyridin-2-yl)-1H-pyrazol-1-yl)-2-methylpropan-2-ol] | 1
COc1cc(-c2cnc(C)n2C)ccc1Nc1cc2cc(-c3cncnc3)ccc2cn1 [Example 17, N-(4-(1,2-dimethyl-1H-imidazol-5-yl)-2-methoxyphenyl)-6-(pyrimidin-5-yl)isoquinolin-3-amine] | 14
Cc1ncc(-c2ccc(Nc3cc4cc(-c5cnn(CC(C)(C)O)c5)ccc4cn3)cc2)n1C [Example 47, 1-(4-(3-(4-(1,2-Dimethyl-1H-imidazol-5-yl)phenylamino)isoquinolin-6-yl)-1H-pyrazol-1-yl)-2-methylpropan-2-ol] | 6
